Measured values published in the METLIN SMRT retention time set (Domingo-Almenara et al. 2019).

Assay: gradient 5% acetonitrile 3 min, to 50% in 2 min, to 85% in 15 min, held 3 min, 100 µL/min
Settings: column: Zorbax Extend-C18 2.1 x 50 mm; eluents: water / acetonitrile, 0.1% formic acid
Summary of the method: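 Data were gathered over 3 months by HPLC coupled to a quadrupole time-of-flight mass spectrometer, operated in positive and negative ionization mode. Mixtures of ~100 pure standards ran on a Zorbax Extend-C18 column (2.1 × 50 mm, 1.8 μm) at 100 μL/min, with water and acetonitrile each containing 0.1% formic acid and dead and dwell volumes of 40 μL and 900 μL. Retention time was read from adduct peaks picked by computer and checked manually.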

Structure (SMILES) | RP-LC retention time [s]
Cc1ccc(CNC(=O)N2CCC(OC3CCN(Cc4ccccc4)CC3)CC2)cc1 | 681
COc1ccc(-c2noc(-c3nn(-c4ccc(F)c(F)c4)ccc3=O)n2)cc1 | 914
Cc1ccc(-c2ccc(N3CCCC(C(=O)NCCN4CCC(C)CC4)C3)nn2)cc1 (stereo not given) | 594
C=CCN(C)C(=O)c1cnn2c3c(cnc12)CCCCCC3 | 827
COc1ccc(C(=O)Nc2ccc3c(c2)Sc2ncccc2C(=O)N3C)c(OC)c1 | 706
COc1ccc(NC(=O)NCCc2cn(C)c3ncccc23)cc1 | 633
COc1ccccc1-c1ccc(SCC(=O)Nc2ccc3c(c2)OCCO3)nn1 | 792
CCN(C(=O)Cn1nc2cc(-c3ccccc3)nc(C)n2c1=O)c1ccccc1 | 985
COc1cccc(N2CCN(c3cc(SCC(=O)NCC4CCCO4)ncn3)CC2)c1 (stereo not given) | 769
CC(C)n1ncc(NC(=O)c2ccc(F)cc2)c(N2CCOCC2)c1=O | 883
CCOC(=O)c1sc(NC(=O)COc2ccc(Cl)cc2)nc1C | 970
CCOc1ccc(-c2noc(CSc3nccn3-c3ccc(C)cc3)n2)cc1OC | 908
CN1C(=O)C2CCCCN2c2ccc(C(=O)NCCCN3CCOCC3)cc21 (stereo not given) | 579
O=S(=O)(c1cccc(C(F)(F)F)c1)N1CCC(CN2CCCCC2)CC1 | 680
CN(C)S(=O)(=O)N1CCc2nc(NC(=O)c3cccs3)sc2C1 | 729
COc1cc(OC)cc(N2C(=O)c3cc(C)nn3CC2(C)C(=O)NCc2ccc(F)cc2)c1 (stereo not given) | 829
Cc1ccc2nc(-c3ccc(O)cc3)c(Nc3ccc4c(c3)OCO4)n2c1 | 633
COc1ccc(NC(=O)Cn2nc3cc(C)nc(Nc4ccc(C)c(C)c4)n3c2=O)cc1 | 1090
Cc1ccc(Cn2c(N3CCC(C(=O)NC4CC4)CC3)nc3ccsc3c2=O)cc1 | 783
O=C(CN1C(=O)COc2ccccc2C1=O)c1cccc([N+](=O)[O-])c1 | 863
O=C(O)c1ccc(NCc2nc3ccccc3[nH]2)cc1 | 896

Structure (SMILES) | RP-LC retention time [s]
COc1ncc(-c2ccc3nccc(-c4ccnnc4)c3c2)cc1NS(=O)(=O)c1ccc(F)cc1F | 785
O=C(C1CCN(S(=O)(=O)c2ccc(-c3noc(C4CC4)n3)cc2)CC1)N1CCc2ccccc21 | 800
CC1=C(c2ccc(C)cc2)S(=O)(=O)N=C1N1CCCN(C(=O)c2cccc(C#N)c2)CC1 | 885
CC(C)n1c(N2CCN(C(=O)c3[nH]nc4c3CCc3ccccc3-4)CC2)cc(=O)n(C(C)C)c1=O | 872
Cc1nc2cc(N3CC(C(=O)Nc4ccc(Cl)cc4C)CC3=O)ccc2o1 (stereo not given) | 781
O=C(Cn1nc2nc(N3CCCC3)ccn2c1=O)NCc1ccc(Cl)cc1 | 690
Cc1cc(N2CCOCC2)nc(Nc2ccc(NC(=O)C(C)Oc3ccccc3)cc2)n1 (stereo not given) | 580
COc1cc(C)c(C)cc1S(=O)(=O)Nc1cccc(-c2ccc(N3CCCC3)nn2)c1 | 607
COc1ccc(S(=O)(=O)Cc2nc(-c3ccccc3Cl)no2)cc1 | 966
CCCC(=O)N1CCc2c([nH]c3ccccc23)C12C(=O)Nc1ccccc12 (stereo not given) | 830
O=C(Nc1cccc2c1N(C(=O)c1ccco1)CCC2)c1ccco1 | 784
CC(C)=CC1C(C(=O)O)C1(C)C (stereo not given) | 808
COc1cccc(CNC(=O)Nc2c(-c3ccc(F)cc3)nc3ccccn23)c1 | 652
Cc1ccc(-n2nnc(C(=O)O)c2-c2ccccn2)c(F)c1 | 697
CCn1nccc1-c1cccc(-c2noc(-c3cccc(NC(C)=O)c3)n2)c1 | 924
O=S(=O)(Cc1ccccc1F)N1CCC(c2noc(-c3cccnc3)n2)C1 (stereo not given) | 826
CCC(Oc1ccc(=O)n(-c2ccc(F)cc2)n1)C(=O)NCCN1CCN(C)CC1 (stereo not given) | 585
O=C(NCCc1ccccc1)C1CCCN(c2ncnc3c2nc2n3CCCCC2)C1 (stereo not given) | 758
CCc1nc(OCC(=O)NCc2ccc3c(c2)OCO3)c2ccccc2n1 | 902
O=C(C1CCCN(c2ncnc3c2nc2n3CCCCC2)C1)N(Cc1ccco1)C1CCCCC1 (stereo not given) | 1020

The remaining lines, values ahead:

RP-LC retention time [s] | Structure (SMILES)
905 | O=C(Cc1cccs1)Nc1cccc(OCc2nnc(-c3ccccc3)o2)c1
772 | Cc1noc(CNC(=O)C2CCN(C(=O)C(C)(C)Oc3ccc(Cl)cc3)CC2)n1
628 | CCCN1CCN(c2cc(C(=O)O)c3cc(NC(=O)c4ccc(Br)cc4)ccc3n2)CC1
710 | CC(C)c1ccc(-c2ccnc3c(C(=O)N4CCN(c5ccccn5)CC4)cnn23)cc1
684 | Cc1nn(C(C)C(=O)N2CCOCC2)c(=O)c2nn(-c3ccccc3)c(C)c12 (stereo not given)
1000 | CCn1c(=O)c2ccccc2n(Cc2nc(-c3ccccc3Cl)no2)c1=O
959 | CCc1nc2cc(-c3noc(-c4ccncc4)n3)ccc2o1
610 | CN(CCNC(=O)c1ccc2c(c1)N(S(C)(=O)=O)CC2)C1CCCCC1
681 | Cc1ccc(C)c(NC(=O)CSc2ccc(N3CCCC(C(=O)NC4CC4)C3)nn2)c1 (stereo not given)
1160 | CCC1CCCCN1c1cc(C)nc2nc(-c3ccc(C)cc3)nn12 (stereo not given)
701 | O=C(Cc1ccc([N+](=O)[O-])cc1)NCc1nnnn1-c1ccc(F)cc1
860 | O=S(=O)(c1cccn2c(SCc3cccc(Cl)c3)nnc12)N1CCCC1
898 | O=C(NCCc1c[nH]c2ccccc12)c1cn(-c2ccc(F)cc2)nn1
854 | COc1ccc(N2C(=O)C(O)=C(S(=O)(=O)c3ccccc3)C2c2ccccc2)cc1 (stereo not given)
756 | Cc1ccc(C(=O)N2C(C(=O)NCc3ccco3)COC23CCN(C(=O)C(C)(C)C)CC3)cc1 (stereo not given)
811 | O=C(Nc1nc2c(s1)CN(C(=O)Nc1ccc(Cl)c(Cl)c1)CC2)c1cnccn1
1140 | CCN(CC)S(=O)(=O)c1ccc(C)c(-c2nnc(-c3ccccc3Cl)o2)c1
721 | CCC(C)NC(=O)c1ccc(CN2CCN(Cc3ccccc3)C(=O)C2=O)cc1 (stereo not given)
628 | COc1ccc(-c2ccc(=O)n(CCNC(=O)c3ccno3)n2)cc1
819 | CSc1ccc(-c2nc3ccc(C)cn3c2Nc2ccc(C)cc2)cc1
760 | Cc1cc(-c2csc(S(=O)(=O)N3CCN(CCOc4ccc(Cl)cc4)CC3)c2)on1
896 | Cc1ccc(CNC(=O)NCCC2CCN(S(=O)(=O)c3ccc(F)cc3)CC2)cc1
643 | NS(=O)(=O)c1ccc(CCNCc2ccc(-c3ccc(F)cc3)o2)cc1
646 | COc1ccc(NC(=O)N2CCN(c3cc(C)nc(N4CCCC4)n3)CC2)c(OC)c1
